In EP4722212A1, “NOVEL COMPOUND FOR INHIBITING PROTEIN KINASES AND PHARMACEUTICAL COMPOSITION COMPRISING SAME” (Magicbullettherapeutics Co., Ltd., priority 2023, dated 2024):

Assays:
C4-2B = experiment: Cell line inhibition analysis (CCK-8, 72 h); type: cell-based; settings: read-out: Cell growth inhibition GI50 C4-2B
Procedure, shortened: (§1)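 Cells attached one day, then treated 72 h at 37 °C with nine 3-fold compound dilutions (final 0-50 µM) or DMSO. Growth read by CCK-8 absorbance at 450 nm after 2 h, medium-blank corrected, with a day-0 plate defining 0% growth; GI50 calculated.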

22Rv1 = experiment: Cell line inhibition analysis (CCK-8, 72 h); type: cell-based; settings: Homo sapiens; 22Rv1, 72 hours; read-out: Cell growth inhibition GI50 22Rv1
Procedure, shortened: as §1

HCT-116 = experiment: Cell line inhibition analysis (CCK-8, 72 h); type: cell-based; settings: Homo sapiens, read-out: Cell growth inhibition GI50 HCT-116
Description: (§2) C4-2B and 22Rv1 cells were purchased from ATCC and cultured according to the manufacturer's instructions. The cells were seeded in 96-well plates at 7×10^3cells/100 µl/well and allowed to attach for one day. After removing the culture medium, 90 µl/well of fresh culture medium was added, followed by addition of 10 µl/well of culture medium containing compounds at nine concentrations (0.076-500 µM) serially diluted 3-fold and DMSO control to achieve final concentrations of 0-50 µM, and then cultured for 72 hours in a 37 °C CO2 incubator. Cell proliferation after 72 hours was assessed by adding 10 µl/well of CCK-8 solution, orbital shaking for 30 seconds, then incubating at 37 °C CO2 incubator for 2 hours and measuring absorbance at 450 nm using a microplate reader. The measured absorbance values were corrected by subtracting the absorbance of wells containing only culture medium and CCK-8 solution, and GI50 values were calculated using GraphPad Prism 8 software.
(§3) Meanwhile, in a separate 96-well plate, cells were seeded at 7 × 10^3 cells/100 µl/well, allowed to attach for one day, CCK-8 solution was added, and absorbance was measured to establish the 'Growth (%) = 0' value.
(§4) Furthermore, experiments were conducted on A172, A549, HCI-H460, AsPC-1, MIA-Paca-2, DLD-1, HCT-116, HT-29, SW480, SW620, MDA-MB-231, and SKOV3 cell lines using the same method, with results shown in Tables 9 and 10 below [* <1 µM: A, <5 µM: B, <10 µM: C, >10 µM: D].

A549 = experiment: Cell line inhibition analysis (CCK-8, 72 h); type: cell-based; settings: Homo sapiens, read-out: Cell growth inhibition GI50 A549
Description: as §2, §3, §4

MDA-MB-231 = experiment: Cell line inhibition analysis (CCK-8, 72 h); type: cell-based; settings: Homo sapiens, read-out: Cell growth inhibition GI50 MDA-MB-231
Description: as §2, §3, §4

SW480 = experiment: Cell line inhibition analysis (CCK-8, 72 h); type: cell-based; settings: Homo sapiens, read-out: Cell growth inhibition GI50 SW480
Description: as §2, §3, §4

MIA-Paca-2 = experiment: Cell line inhibition analysis (CCK-8, 72 h); type: cell-based; settings: Homo sapiens, read-out: Cell growth inhibition GI50 MIA-Paca-2
Description: as §2, §3, §4

SW620 = experiment: Cell line inhibition analysis (CCK-8, 72 h); type: cell-based; settings: Homo sapiens, SW-620; read-out: Cell growth inhibition GI50 SW620
Description: as §2, §3, §4

DLD-1 = experiment: Cell line inhibition analysis (CCK-8, 72 h); type: cell-based; settings: Homo sapiens, read-out: Cell growth inhibition GI50 DLD-1
Description: as §2, §3, §4

AsPC-1 = experiment: Cell line inhibition analysis (CCK-8, 72 h); type: cell-based; settings: Homo sapiens, ASPC1; read-out: Cell growth inhibition GI50 AsPC-1
Description: as §2, §3, §4

A172 = experiment: Cell line inhibition analysis (CCK-8, 72 h); type: cell-based; settings: Homo sapiens, A 172; read-out: Cell growth inhibition GI50 A172
Description: as §2, §3, §4

SKOV3 = experiment: Cell line inhibition analysis (CCK-8, 72 h); type: cell-based; settings: Homo sapiens, SK-OV-3; read-out: Cell growth inhibition GI50 SKOV3
Description: as §2, §3, §4

HT-29 = experiment: Cell line inhibition analysis (CCK-8, 72 h); type: cell-based; settings: Homo sapiens, read-out: Cell growth inhibition GI50 HT-29
Description: as §2, §3, §4

HCI-H460 = experiment: Cell line inhibition analysis (CCK-8, 72 h); type: cell-based; settings: read-out: Cell growth inhibition GI50 HCI-H460
Description: as §2, §3, §4

Src = target: T1, Src (Homo sapiens, UniProt P12931); experiment: Enzyme activity inhibition (Reaction Biology); type: biochemical
T1 construct: purchased Reaction Biology (RBC)
T1 sequence (P12931 whole entry): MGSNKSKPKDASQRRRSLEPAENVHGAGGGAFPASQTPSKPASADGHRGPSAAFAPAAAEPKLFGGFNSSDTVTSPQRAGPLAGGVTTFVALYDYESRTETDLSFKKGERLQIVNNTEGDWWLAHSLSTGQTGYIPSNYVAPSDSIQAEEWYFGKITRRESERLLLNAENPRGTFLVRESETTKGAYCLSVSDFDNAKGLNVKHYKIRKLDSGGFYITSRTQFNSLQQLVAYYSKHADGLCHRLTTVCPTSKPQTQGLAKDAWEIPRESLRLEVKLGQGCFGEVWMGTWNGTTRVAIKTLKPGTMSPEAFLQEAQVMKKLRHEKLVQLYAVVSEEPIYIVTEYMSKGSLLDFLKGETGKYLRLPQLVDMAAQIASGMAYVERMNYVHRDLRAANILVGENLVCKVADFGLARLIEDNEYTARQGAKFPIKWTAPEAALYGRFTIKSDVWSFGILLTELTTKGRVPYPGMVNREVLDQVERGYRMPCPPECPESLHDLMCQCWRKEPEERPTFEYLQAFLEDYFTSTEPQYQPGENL
Description: (§5) [* <10 nM: A, <100 nM: B, >100 nM: C]. [Table 7]

BMX = target: T2, BMX (Homo sapiens, UniProt P51813); experiment: Enzyme activity inhibition (Reaction Biology); type: biochemical
T2 construct: purchased Reaction Biology (RBC)
T2 sequence (P51813 1-675): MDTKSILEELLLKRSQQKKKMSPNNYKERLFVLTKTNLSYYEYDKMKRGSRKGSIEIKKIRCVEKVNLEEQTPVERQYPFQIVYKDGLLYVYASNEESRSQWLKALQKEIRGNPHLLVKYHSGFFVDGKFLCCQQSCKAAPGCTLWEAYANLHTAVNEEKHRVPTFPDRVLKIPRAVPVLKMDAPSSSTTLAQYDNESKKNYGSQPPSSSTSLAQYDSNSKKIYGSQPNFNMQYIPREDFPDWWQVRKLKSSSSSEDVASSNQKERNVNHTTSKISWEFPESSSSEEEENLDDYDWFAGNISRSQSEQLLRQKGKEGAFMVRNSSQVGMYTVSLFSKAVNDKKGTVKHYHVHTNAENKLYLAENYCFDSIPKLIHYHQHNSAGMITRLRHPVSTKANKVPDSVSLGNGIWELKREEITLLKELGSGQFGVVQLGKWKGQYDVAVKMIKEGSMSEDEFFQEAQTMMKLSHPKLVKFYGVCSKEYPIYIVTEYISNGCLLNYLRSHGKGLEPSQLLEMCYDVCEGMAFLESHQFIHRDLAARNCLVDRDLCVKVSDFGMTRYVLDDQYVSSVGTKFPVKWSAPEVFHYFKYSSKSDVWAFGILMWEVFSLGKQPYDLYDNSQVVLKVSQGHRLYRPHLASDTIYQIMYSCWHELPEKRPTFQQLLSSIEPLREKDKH
Description: as §5

ACK1 = target: T3, ACK1 (Homo sapiens, UniProt Q07912); experiment: Enzyme activity inhibition (Reaction Biology); type: biochemical
T3 construct: purchased Reaction Biology (RBC)
T3 sequence (Q07912 whole entry): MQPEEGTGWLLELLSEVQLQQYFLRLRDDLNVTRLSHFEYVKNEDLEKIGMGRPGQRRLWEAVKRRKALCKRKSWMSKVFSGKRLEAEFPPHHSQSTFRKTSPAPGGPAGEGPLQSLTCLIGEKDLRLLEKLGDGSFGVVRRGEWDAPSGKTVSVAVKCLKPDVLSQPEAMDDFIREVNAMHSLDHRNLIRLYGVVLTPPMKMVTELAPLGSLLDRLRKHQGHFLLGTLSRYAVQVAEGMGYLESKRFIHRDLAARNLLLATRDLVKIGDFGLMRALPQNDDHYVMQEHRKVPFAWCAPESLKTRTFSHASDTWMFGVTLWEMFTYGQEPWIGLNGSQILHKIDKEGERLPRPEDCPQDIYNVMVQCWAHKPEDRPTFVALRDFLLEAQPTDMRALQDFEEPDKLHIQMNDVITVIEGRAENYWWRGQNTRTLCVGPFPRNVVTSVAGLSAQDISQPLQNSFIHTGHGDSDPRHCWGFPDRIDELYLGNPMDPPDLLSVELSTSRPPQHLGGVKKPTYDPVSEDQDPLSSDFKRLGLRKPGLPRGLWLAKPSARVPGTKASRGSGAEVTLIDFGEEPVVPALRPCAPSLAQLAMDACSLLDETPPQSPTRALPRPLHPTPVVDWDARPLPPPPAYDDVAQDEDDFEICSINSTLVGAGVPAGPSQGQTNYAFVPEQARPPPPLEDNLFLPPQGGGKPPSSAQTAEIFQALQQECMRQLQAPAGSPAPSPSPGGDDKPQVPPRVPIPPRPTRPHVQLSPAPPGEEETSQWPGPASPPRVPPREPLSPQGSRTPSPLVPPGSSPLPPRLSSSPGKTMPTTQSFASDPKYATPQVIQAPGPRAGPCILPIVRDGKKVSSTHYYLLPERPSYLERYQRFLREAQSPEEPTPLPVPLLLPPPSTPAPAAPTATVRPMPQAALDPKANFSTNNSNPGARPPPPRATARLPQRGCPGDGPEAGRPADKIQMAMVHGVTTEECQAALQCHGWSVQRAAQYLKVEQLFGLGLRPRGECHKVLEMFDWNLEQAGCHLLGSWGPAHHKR
Description: as §5

- GI50 (22Rv1): 5000 to 10000 nM
- GI50 (HCT-116): < 1000 nM
- GI50 (A549): > 10000 nM
- GI50 (MDA-MB-231): 1000 to 5000 nM
- GI50 (SW480): 1000 to 5000 nM
- GI50 (MIA-Paca-2): 1000 to 5000 nM
- GI50 (SW620): < 1000 nM
- GI50 (DLD-1): 1000 to 5000 nM
- GI50 (AsPC-1): 1000 to 5000 nM
- GI50 (SKOV3): 1000 to 5000 nM
- GI50 (HT-29): > 10000 nM
- GI50 (HCI-H460): 1000 to 5000 nM
- IC50 (Src): < 10 nM
- IC50 (BMX): < 10 nM
- IC50 (ACK1): < 10 nM
Compound: Cc1ccc(NC(=O)c2cncc(C(F)(F)F)c2)cc1N1Cc2cnc(N)nc2C2(CC2)C1=O [Compound 24, N-(3-(2'-amino-7'-oxo-5'H-spiro[cyclopropane-1,8'-pyrido[4,3-d]pyrimidine]-6'(7'H)-yl)-4-methylphenyl)-5-(trifluoromethyl)nicotinamide]
- GI50 (C4-2B): 1000 to 5000 nM
- GI50 (A172): < 1000 nM
